Each cell line was assayed with O=C(Nc1cc(C(F)(F)F)cc(C(F)(F)F)c1)c1cc(Cl)ccc1O [IMD-0354] + CS(=O)(=O)CCNCc1ccc(-c2ccc3ncnc(Nc4ccc(OCc5cccc(F)c5)c(Cl)c4)c3c2)o1 [Lapatinib] (partner 2 µM) (assay: relative viability (nuclei count vs DMSO), 5 days (fraction); higher = more cells survive). Details: first compound 0.04 µM.
In short: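 Lung cancer cell lines were pin-tool dosed in 1536-well plates on the day after seeding, with either a lone drug or a fixed anchor-drug dose plus five library-drug doses (not always all listed) in √10 steps. Nuclei were counted on 4× images after 5 days. Relative viability is the ratio of treated-well to vehicle-well nuclei counts, with each value a median of duplicate plates.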

| Cell Line | relative viability |
| --- | --- |
| NCI-H2085 | 0.78 |
| Calu-6 | 0.983 |
| HCC-366 | 0.91 |
| NCI-H1666 | 0.631 |
| NCI-H596 | 0.989 |
| NCI-H1395 | 1.11 |
| NCI-H2087 | 0.872 |
| LK-2 | 1.14 |
| H3255 | 0.189 |
| COR-L23 | 1.09 |
| COR-L 105 | 0.332 |
| IA-LM | 0.628 |
| LOU-NH91 | 0.85 |
| NCI-H358 | 0.541 |
| NCI-H2405 | 1.38 |
| HOP-62 | 0.974 |

| Cell Line | relative viability |
| --- | --- |
| HCC-44 | 0.976 |
| A549 | 1.19 |
| LU99A | 0.708 |
| BEN | 0.601 |
| HARA | 0.792 |
| HCC-78 | 1.16 |
| NCI-H322M | 0.651 |
| NCI-H2009 | 0.82 |
| A-427 | 1.12 |
| NCI-H661 | 0.466 |
| NCI-H1734 | 1.23 |
| NCI-H460 | 1.08 |
| NCI-H2347 | 0.863 |
| SW 1573 | 1.07 |
| NCI-H1793 | 0.651 |

Same assay, conditions: first compound 0.1265 µM

| Cell Line | relative viability |
| --- | --- |
| NCI-H2085 | 0.797 |
| Calu-6 | 1.1 |
| HCC-366 | 1.41 |
| NCI-H1666 | 0.617 |
| NCI-H596 | 1.22 |
| NCI-H1395 | 1.28 |
| NCI-H2087 | 0.991 |
| LK-2 | 0.9 |
| H3255 | 0.246 |
| COR-L23 | 0.831 |
| COR-L 105 | 0.329 |
| IA-LM | 0.743 |
| LOU-NH91 | 0.804 |
| NCI-H358 | 0.441 |
| NCI-H2405 | 1.24 |
| HOP-62 | 1.13 |

| Cell Line | relative viability |
| --- | --- |
| HCC-44 | 1.08 |
| A549 | 1.04 |
| LU99A | 0.952 |
| BEN | 0.878 |
| HARA | 0.752 |
| HCC-78 | 0.889 |
| NCI-H322M | 0.584 |
| LCLC-97TM1 | 0.792 |
| NCI-H2009 | 0.832 |
| A-427 | 1.02 |
| NCI-H661 | 0.458 |
| NCI-H1734 | 1.07 |
| NCI-H460 | 0.679 |
| NCI-H2347 | 0.972 |
| SW 1573 | 1.25 |
| NCI-H1793 | 0.613 |

Same assay, conditions: first compound 0.4 µM

| Cell Line | relative viability |
| --- | --- |
| NCI-H2085 | 0.64 |
| Calu-6 | 0.6 |
| HCC-366 | 0.118 |
| NCI-H1666 | 0.452 |
| NCI-H596 | 0.823 |
| NCI-H1395 | 0.821 |
| NCI-H2087 | 0.419 |
| LK-2 | 0.545 |
| H3255 | 0.276 |
| COR-L23 | 0.439 |
| COR-L 105 | 0.339 |
| IA-LM | 0.412 |
| LOU-NH91 | 0.337 |
| NCI-H358 | 0.413 |
| NCI-H2405 | 0.69 |
| HOP-62 | 0.603 |

| Cell Line | relative viability |
| --- | --- |
| HCC-44 | 0.408 |
| A549 | 0.245 |
| LU99A | 0.604 |
| BEN | 0.373 |
| HARA | 0.432 |
| HCC-78 | 0.729 |
| NCI-H322M | 0.57 |
| LCLC-97TM1 | 0.419 |
| NCI-H2009 | 0.647 |
| A-427 | 0.678 |
| NCI-H661 | 0.477 |
| NCI-H1734 | 0.493 |
| NCI-H460 | 0.178 |
| NCI-H2347 | 0.632 |
| SW 1573 | 0.362 |
| NCI-H1793 | 0.347 |

Same assay, conditions: first compound 1.265 µM

| Cell Line | relative viability |
| --- | --- |
| NCI-H2085 | 0.389 |
| Calu-6 | 0.223 |
| HCC-366 | 0.0814 |
| NCI-H1666 | 0.176 |
| NCI-H596 | 1.07 |
| NCI-H1395 | 0.292 |
| NCI-H2087 | 0.137 |
| LK-2 | 0.844 |
| H3255 | 0.17 |
| COR-L23 | 0.117 |
| COR-L 105 | 0.243 |
| IA-LM | 0.285 |
| LOU-NH91 | 0.226 |
| NCI-H358 | 0.273 |
| NCI-H2405 | 0.243 |
| HOP-62 | 0.662 |

| Cell Line | relative viability |
| --- | --- |
| HCC-44 | 0.23 |
| A549 | 0.101 |
| LU99A | 0.247 |
| BEN | 0.266 |
| HARA | 0.11 |
| HCC-78 | 0.0878 |
| NCI-H322M | 0.802 |
| LCLC-97TM1 | 0.27 |
| NCI-H2009 | 0.134 |
| A-427 | 0.618 |
| NCI-H661 | 0.538 |
| NCI-H1734 | 0.232 |
| NCI-H460 | 0.0562 |
| NCI-H2347 | 0.201 |
| SW 1573 | 0.628 |
| NCI-H1793 | 0.238 |

Same assay, conditions: first compound 4 µM

| Cell Line | relative viability |
| --- | --- |
| NCI-H2085 | 0.298 |
| Calu-6 | 0.2 |
| HCC-366 | 0.0302 |
| NCI-H1666 | 0.167 |
| NCI-H596 | 0.474 |
| NCI-H1395 | 0.364 |
| NCI-H2087 | 0.178 |
| LK-2 | 0.288 |
| H3255 | 0.207 |
| COR-L23 | 0.172 |
| COR-L 105 | 0.253 |
| IA-LM | 0.235 |
| LOU-NH91 | 0.222 |
| NCI-H358 | 0.192 |
| NCI-H2405 | 0.202 |
| HOP-62 | 0.0827 |
| HCC-44 | 0.206 |
| A549 | 0.105 |
| LU99A | 0.165 |
| BEN | 0.229 |
| HARA | 0.198 |
| HCC-78 | 0.234 |
| NCI-H322M | 0.342 |
| LCLC-97TM1 | 0.144 |
| NCI-H2009 | 0.155 |
| A-427 | 0.105 |
| NCI-H661 | 0.273 |
| NCI-H1734 | 0.218 |
| NCI-H460 | 0.0153 |
| NCI-H2347 | 0.434 |

Source: the supplement of paper PMC10307832
